The values that follow come from patent US20160250213A1, “FORMULATIONS OF AZAINDOLE COMPOUNDS” (priority 2013, published 2016).

The subject of series [1] is A/Puerto Rico/8/34. It is filed as cell-based, influenza A virus.
For series [2] the following is noted: ambient temperature.

SMILES strings stand for the structures. Where two headings read alike, the source gives them in different places.

On to `CC(=O)N[C@H]1[C@H]([C@H](O)[C@H](O)CO)OC(C(=O)O)=C[C@@H]1N=C(N)N` [Zanamivir], for which, in series [1], the “C.I. (combination index) values at the 50% effect level” value is on record as 0.64 and the “Synergy Volume, 95% Confidence” value amounted to 268.

Consider `O=C(O)[C@H]1C2CCC(CC2)C1Nc1nc(-c2c[nH]c3ncc(F)cc23)ncc1F` (stereo partly drawn) [amorphous compound (1)], for which the “Resulting Form” value in series [2] (solvent 1,1,2-Trichloroethane) was “Amorphous”; in series [2] (solvent 1,2-Dichloroethane) it was “Amorphous”; in series [2] (solvent 1,2-Dimethoxyethane), “Amorphous”; in series [2] (solvent 1,4-Dioxane), “Solvate (1:1)”; in series [2] (solvent 1-Butanol) it was “Solvate (1:1)”; in series [2] (solvent 1-Pentanol), “Solvate(1:1)”. The “Resulting Form” value in series [2] (solvent 1-Propanol) is reported as “No signal”; in series [2] (solvent 2-Butanol), “Solvate(1:1)”; in series [2] (solvent 2-Ethoxyethanol) it was “No signal”; in series [2] (solvent 2-Methoxyethanol), “No signal”; in series [2] (solvent 2-Methy-1-propanol) it was “Solvate(1:1)”; in series [2] (solvent 2-Propanol) it was “Solvate(1:1)”. Moreover, the “Resulting Form” value in series [2] (solvent 3-Methyl-1-butanol) was “Solvate”; in series [2] (solvent Acetone), “Solvate”; in series [2] (solvent Acetonitrile), “Amorphous”; in series [2] (solvent Anisole), “Amorphous”; in series [2] (solvent Butyl acetate), “Amorphous”; in series [2] (solvent Chlorobenzene) it was “Amorphous”. The “Resulting Form” value is on record as “Amorphous” in series [2] (solvent Chloroform); “Amorphous” in series [2] (solvent Cumene); “Amorphous” in series [2] (solvent Cyclohexane); “Amorphous” in series [2] (solvent Dichloromethane); “No signal” in series [2] (solvent Dimethylsulfoxide); “Amorphous” in series [2] (solvent Ethyl acetate). Further, the “Resulting Form” value was “Amorphous” in series [2] (solvent Ethyl ether); “Solvate(1:1)” in series [2] (solvent Ethyl formate); “Solvate” in series [2] (solvent Ethylene glycol); “Amorphous” in series [2] (solvent Formamide); “No signal” in series [2] (solvent Formic acid); “Solvate” in series [2] (solvent Heptane). In addition, the “Resulting Form” value is recorded as “Amorphous” in series [2] (solvent Hexane); “Amorphous” in series [2] (solvent Isobutyl acetate); “Amorphous” in series [2] (solvent Isopropyl acetate); “Solvate” in series [2] (solvent Methanol); “Solvate” in series [2] (solvent Methyl acetate); “Solvate(1:1)” in series [2] (solvent Methyl tetrahydrofuran). Also, the “Resulting Form” value was “Amorphous” in series [2] (solvent Methylbutyl ketone); “Amorphous” in series [2] (solvent Methylcyclohexane); “Solvate(1:1)” in series [2] (solvent Methylethyl ketone); “Solvate” in series [2] (solvent N,N-Dimethylacetamide); “No signal” in series [2] (solvent N,N-Dimethylformamide); “No signal” in series [2] (solvent N-Methylpyrrolidinone). The “Resulting Form” value is on record as “Amorphous” in series [2] (solvent Nitromethane); “Amorphous” in series [2] (solvent Pentane); “Amorphous” in series [2] (solvent Propyl acetate); “Solvate(1:1)” in series [2] (solvent Tetrahydrofuran); “Amorphous” in series [2] (solvent Tetralin); “Amorphous” in series [2] (solvent Toluene). The “Resulting Form” value in series [2] (solvent Water) was “Amorphous”; in series [2] (solvent acetic acid), “Solvate”; in series [2] (solvent t-Butylmethylether) it was “Amorphous”; in series [2] (solvent xylene), “Amorphous”.

On to `CCC(CC)O[C@@H]1C=C(C(=O)O)C[C@H](N)[C@H]1NC(C)=O` [oseltamivir carboxylate], for which the “Synergy Volume, 95% Confidence” value in series [1] (Bliss Independence (Macsynergy), in combination with Compound (1)) amounted to 312.

In the case of `NC(=O)c1nc(F)c[nH]c1=O` [favipiravir], in series [1], the “C.I. (combination index) values at the 50% effect level” value stood at 0.89 and the “Synergy Volume, 95% Confidence” value is 317.
